# Tested on: Jurkat IL-2 Production
# Assay: Jurkat IL-2 Production Assay
# Format: cell-based
# Settings: Homo sapiens, Jurkat cell (ATCC), 18-20 h incubation, PHA 5 μg/mL with 1% FBS, or PMA/Ionomycin with 30% FBS (table does not say which)
# Summary of the method: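 Jurkat cells were exposed to compound (0.25% DMSO final) for 10 min, then stimulated for 18–20 h at 37 °C. The 1% FBS condition used 5 μg/mL PHA; the high-serum condition (30% FBS) used 50 ng/mL PMA plus 500 ng/mL ionomycin. IC50 was derived from IL-2 production.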
row,SMILES,IC50 [nM]
1,"Cc1cc(N2CCOCC2)ncc1-c1ccc2[nH]c(-c3c(F)cccc3Cl)cc2c1 [Example 165, 4-(5-(2-(2-chloro-6-fluorophenyl)-1H-indol-5-yl)-4-methylpyridin-2-yl)morpholine]",316
2,"CNc1cc(C)c(-c2ccc3[nH]c(-c4c(F)cccc4Cl)cc3c2)cn1 [Example 166, 5-(2-(2-chloro-6-fluorophenyl)-1H-indol-5-yl)-N,4-dimethylpyridin-2-amine]",518
3,"Cc1cc(S(=O)(=O)N(C)C)cnc1-c1ccc2[nH]c(-c3c(F)cccc3Cl)cc2c1 [Example 167, 6-(2-(2-chloro-6-fluorophenyl)-1H-indol-5-yl)-N,N,5-trimethylpyridine-3-sulfonamide]",34
4,"CNS(=O)(=O)c1ccc(-c2ccc3[nH]c(-c4c(F)cccc4Cl)cc3c2)c(C)c1 [Example 168, 4-(2-(2-chloro-6-fluorophenyl)-1H-indol-5-yl)-N,3-dimethylbenzenesulfonamide]",44
5,"Cc1cc(S(=O)(=O)N2CCOCC2)ccc1-c1ccc2[nH]c(-c3c(F)cccc3Cl)cc2c1 [Example 169, 4-(4-(2-(2-chloro-6-fluorophenyl)-1H-indol-5-yl)-3-methylphenylsulfonyl)morpholine]",117
6,"Cc1cc(S(=O)(=O)N2CCN(C)CC2)ccc1-c1ccc2[nH]c(-c3c(F)cccc3Cl)cc2c1 [Example 170, 2-(2-chloro-6-fluorophenyl)-5-(2-methyl-4-(4-methylpiperazin-1-ylsulfonyl)phenyl)-1H-indole]",170
7,"Cc1cc(-c2nnn(C)n2)ccc1-c1ccc2[nH]c(-c3c(F)cccc3Cl)cc2c1 [Example 171, 2-(2-chloro-6-fluorophenyl)-5-(2-methyl-4-(2-methyl-2H-tetrazol-5-yl)phenyl)-1H-indole]",17
8,"COc1cc(C#N)ccc1-c1ccc2[nH]c(-c3c(F)cccc3Cl)cc2c1 [Example 172, 4-[2-(2-Chloro-6-fluoro-phenyl)-1H-indol-5-yl]-3-methoxy-benzonitrile]",15
9,"Cc1cc(S(C)(=O)=O)ncc1-c1ccc2[nH]c(-c3c(F)cccc3Cl)cc2c1 [Example 173, 2-(2-Chloro-6-fluoro-phenyl)-5-(6-methanesulfonyl-4-methyl-pyridin-3-yl)-1H-indole]",12
10,"CCc1cc(Cl)ncc1-c1ccc2[nH]c(-c3c(F)cccc3Cl)cc2c1 [Example 174, 5-(6-Chloro-4-ethyl-pyridin-3-yl)-2-(2-chloro-6-fluoro-phenyl)-1H-indole]",22
11,"CCc1sc(-c2cccnc2)nc1-c1ccc2[nH]c(-c3c(F)cccc3Cl)cc2c1 [Example 175, 4-[2-(2-chloro-6-fluorophenyl)-1H-indol-5-yl]-5-ethyl-2-(pyridin-3-yl)thiazole]",11
12,"Cc1sc(-c2cnccn2)nc1-c1ccc2[nH]c(-c3c(F)cccc3Cl)cc2c1 [Example 176, 2-(2-Chloro-6-fluoro-phenyl)-5-(5-methyl-2-pyrazin-2-yl-thiazol-4-yl)-1H-indole]",14
13,"Cc1sc(-c2cncnc2)nc1-c1ccc2[nH]c(-c3c(F)cccc3Cl)cc2c1 [Example 177, 2-(2-Chloro-6-fluoro-phenyl)-5-(5-methyl-2-pyrimidin-5-yl-thiazol-4-yl)-1H-indole]",82
14,"Cc1ccc(-c2nc(-c3ccc4[nH]c(-c5c(F)cccc5Cl)cc4c3)c(C)s2)cn1 [Example 178, 2-(2-Chloro-6-fluoro-phenyl)-5-[5-methyl-2-(6-methyl-pyridin-3-yl)-thiazol-4-yl]-1H-indole]",59
15,"CCc1sc(-c2cnccn2)nc1-c1ccc2[nH]c(-c3c(F)cccc3Cl)cc2c1 [Example 179, 2-(2-Chloro-6-fluoro-phenyl)-5-(5-ethyl-2-pyrazin-2-yl-thiazol-4-yl)-1H-indole]",23
16,"CC(C)c1sc(-c2cccnc2)nc1-c1ccc2[nH]c(-c3c(F)cccc3Cl)cc2c1 [Example 180, 2-(2-Chloro-6-fluoro-phenyl)-5-(5-isopropyl-2-pyridin-3-yl-thiazol-4-yl)-1H-indole]",28
17,"CC(C)c1sc(-c2cnccn2)nc1-c1ccc2[nH]c(-c3c(F)cccc3Cl)cc2c1 [Example 181, 2-(2-Chloro-6-fluoro-phenyl)-5-(5-isopropyl-2-pyrazin-2-yl-thiazol-4-yl)-1H-indole]",56
18,"CC(c1sc(-c2cccnc2)nc1-c1ccc2[nH]c(-c3c(F)cccc3Cl)cc2c1)C(F)(F)F (stereo not shown) [Example 182, 2-(2-chloro-6-fluoro-phenyl)-5-[2-pyridin-3-yl-5-(2,2,2-trifluoro-1-methyl-ethyl)-thiazol-4-yl]-1H-indole]",142
19,"CCn1nc(-c2cnccn2)cc1-c1ccc2[nH]c(-c3c(F)cccc3Cl)cc2c1 [Example 183, 2-(2-chloro-6-fluorophenyl)-5-(1-ethyl-3-(pyrazin-2-yl)-1H-pyrazol-5-yl)-1H-indole]",28
20,"Cn1nc(-c2ccccn2)nc1-c1ccc2[nH]c(-c3c(F)cccc3Cl)cc2c1 [Example 184, 2-(2-Chloro-6-fluoro-phenyl)-5-(2-methyl-5-pyridin-2-yl-2H-[1,2,4]-triazol-3-yl)-1H-indole]",148

row,SMILES,IC50 [nM]
1,"CCn1nc(-c2cccnc2)nc1-c1ccc2[nH]c(-c3ccccc3Cl)cc2c1 [Example 185, 2-(2-Chloro-phenyl)-5-(2-ethyl-5-pyridin-3-yl-2H-[1,2,4]-triazol-3-yl)-1H-indole]",65
2,"CCn1nc(-c2cccnc2)nc1-c1ccc2[nH]c(-c3c(Cl)cccc3Cl)cc2c1 [Example 186, 2-(2,6-Dichloro-phenyl)-5-(2-ethyl-5-pyridin-3-yl-2H-[1,2,4]triazol-3-yl)-1H-indole]",34
3,"CCn1nc(-c2cnccn2)nc1-c1ccc2[nH]c(-c3c(F)cccc3Cl)cc2c1 [Example 187, 2-(2-Chloro-6-fluoro-phenyl)-5-(2-ethyl-5-pyrazin-2-yl-2H-[1,2,4]triazol-3-yl)-1H-indole]",69
4,"Cn1nc(-c2cncnc2)nc1-c1ccc2[nH]c(-c3c(F)cccc3Cl)cc2c1 [Example 188, 2-(2-Chloro-6-fluoro-phenyl)-5-(2-methyl-5-pyrimidin-5-yl-2H-[1,2,4]triazol-3-yl)-1H-indole]",44
5,"CCn1nc(C(F)(F)F)cc1-c1ccc2[nH]c(-c3ccncc3C)cc2c1 [Example 189, 5-(1-ethyl-3-(trifluoromethyl)-1H-pyrazol-5-yl)-2-(3-methylpyridin-4-yl)-1H-indole]",76
6,"CCn1nc(C(F)(F)F)cc1-c1ccc2[nH]c(-c3cnc(OC)cc3C)cc2c1 [Example 190, 5-(1-ethyl-3-(trifluoromethyl)-1H-pyrazol-5-yl)-2-(6-methoxy-4-methylpyridin-3-yl)-1H-indole]",111
7,"CCn1nc(C(F)(F)F)cc1-c1ccc2[nH]c(-c3cnccc3C)cc2c1 [Example 191, 5-(1-ethyl-3-(trifluoromethyl)-1H-pyrazol-5-yl)-2-(4-methylpyridin-3-yl)-1H-indole]",67
8,"CCn1nc(C(F)(F)F)cc1-c1ccc2[nH]c(-c3ccncc3F)cc2c1 [Example 192, 5-(1-ethyl-3-(trifluoromethyl)-1H-pyrazol-5-yl)-2-(3-fluoropyridin-4-yl)-1H-indole]",149
9,"CCn1nc(C(F)(F)F)cc1-c1ccc2[nH]c(-c3ccc(OC)nc3C)cc2c1 [Example 193, 5-(1-ethyl-3-(trifluoromethyl)-1H-pyrazol-5-yl)-2-(6-methoxy-2-methylpyridin-3-yl)-1H-indole]",129
10,"CCn1nc(C(F)(F)F)cc1-c1ccc2[nH]c(-c3ccnc(OC)c3Cl)cc2c1 [Example 194, 2-(3-chloro-2-methoxypyridin-4-yl)-5-(1-ethyl-3-(trifluoromethyl)-1H-pyrazol-5-yl)-1H-indole]",139
11,"CCn1nc(C(F)(F)F)cc1-c1ccc2[nH]c(C3=CCCCC3)cc2c1 [Example 195, 2-cyclohexenyl-5-[1-ethyl-3-{trifluoromethyl}-1H-pyrazol-5-yl]-1H-indole]",782
12,"CCn1nc(C(F)(F)F)cc1-c1ccc2[nH]c(C3CCCCC3)cc2c1 [Example 196, 2-cyclohexyl-5-(1-ethyl-3-(trifluoromethyl)-1H-pyrazol-5-yl)-1H-indole]",24
13,CCn1nc(C(F)(F)F)cc1-c1ccc2c(c1)CC(C1CCCCC1)N2 (stereo not shown) [Example 197],110
14,"CCn1nc(C(F)(F)F)cc1-c1ccc2[nH]c(C3CCOCC3)cc2c1 [Example 198, 5-(1-ethyl-3-(trifluoromethyl)-1H-pyrazol-5-yl)-2-(tetrahydro-2H-pyran-4-yl)-1H-indole]",95
15,"CCn1nc(C(F)(F)F)cc1-c1ccc2[nH]c(C3CCCOC3)cc2c1 (stereo not shown) [Example 199, 5-(1-ethyl-3-(trifluoromethyl)-1H-pyrazol-5-yl)-2-(tetrahydro-2H-pyran-3-yl)-1H-indole]",86
16,"CCn1nc(C(F)(F)F)cc1-c1ccc2[nH]c(C3CCN(C(C)=O)CC3)cc2c1 [Example 200, 1-(4-(5-(1-ethyl-3-(trifluoromethyl)-1H-pyrazol-5-yl)-1H-indol-2-yl)piperidin-1-yl)ethanone]",220
17,"COc1cc(F)c(-c2cc3cc(-c4cc(C(F)(F)F)nn4C)ccc3[nH]2)c(Cl)c1 [Example 201, 2-(2-chloro-6-fluoro-4-methoxyphenyl)-5-(1-methyl-3-(trifluoromethyl)-1H-pyrazol-5-yl)-1H-indole]",35
18,"COc1cc(F)c(-c2cc3cc(-c4ccc(C#N)cc4C)ccc3[nH]2)c(Cl)c1 [Example 202, 4-(2-(2-chloro-6-fluoro-4-methoxyphenyl)-1H-indol-5-yl)-3-methylbenzonitrile]",57
19,"CCn1nc(C(F)(F)F)cc1-c1ccc2[nH]c(-c3c(F)cc(OC)cc3Cl)cc2c1 [Example 203, 2-(2-chloro-6-fluoro-4-methoxyphenyl)-5-(1-ethyl-3-(trifluoromethyl)-1H-pyrazol-5-yl)-1H-indole]",31
20,"CCn1nc(-c2cnccn2)cc1-c1ccc2[nH]c(-c3c(F)cccc3F)cc2c1 [Example 204, 2-(2,6-difluorophenyl)-5-(1-ethyl-3-(pyrazin-2-yl)-1H-pyrazol-5-yl)-1H-indole]",63

# Source: US20110071150A1 (priority 2009, published 2011)
